# Entries after “also recorded” stand apart in the source; their conditions may differ.
# Key:
# Assay type in all cases: cell-based, rabbit
# [1] = tested on: cells derived from the tendon sheath; assay: WST-1 proliferation assay, tendon sheath cells
# Description: (§1) Therefore all three-cell types were established and cultured as separate cell strains.
# (§2) Tendon derived fibroblasts were cultured in Dulbecco's Modified Eagles Medium (DMEM) with 10% fetal calf serum, 2 mM glutamine, 100 U/ml penicillin and […] streptomycin (NGM).
# (§3) A 5 mg/ml solution of the phospholipid prepared according to Example 1 and referred to in this example as “Pumactant” was dissolved in serum free media in a sterile 100 ml bottle incubated at 37° C. and then diluted further to a concentration of 1 mg/ml.
# (§4) Fibroblasts derived from tendons were seeded at 5×10^3/well into a 96 microtitre plate (Greiner) and allowed to attach overnight in minimum media (DMEM supplemented with 0.4% FCS) to maintain cells in a healthy but quiescent state. After 24 hrs, the media was aspirated and replaced by test media (minimum media with concentrations of pumactant; or different concentrations of fetal calf serum; or different concentrations of TGF-β1) and cultured for 24, 48 and 72 hours. Cell number was assessed using WST-1 assay (Roche Products Ltd). Test media was removed and the wells washed twice with minimal media, minimal media was replaced and 10 μl WST-1 solution was added to each well. The cells were incubated for 1 hour in standard tissue culture conditions. The absorbance, which related to the number of viable cells converting the reagent to coloured formazan crystals, was read at 450 nm on a Bio-Rad Plate reader. Experiments were performed in triplicate for each cell strain.
# [2] = tested on: cells derived from the surface of the tendon (epitenon); assay: WST-1 proliferation assay, tendon surface cells
# Description: as §1, §2, §3, §4
# [3] = tested on: collagen type I, collagen type III, fibronectin, PAI-1, tPA gene transcription in surface derived cells; assay: QRT-PCR gene transcription, surface derived cells; settings: time course
# Description: (§5) Cells were placed in serum free media for 24 hrs prior to stimulation with pumactant or TGF-β1; viability was assessed using Trypan blue (Sigma; data not shown). Quiescent cells were treated with pumactant (1 mg/ml) for 0-24 hrs or TGF-β1 for 0-24 h ours (positive control). Total RNA was isolated from treated and untreated samples using Trizol (Gibco). Quant-iT™ Ribogreen® RNA kit (Invitrogen) was used to determine RNA concentration. First strand cDNA was synthesized using the StrataScript® first-strand synthesis system (Stratagene™) with oligonucleotide dTs (0.5 μg/μl) according to manufacturer's instructions.
# (§6) Two μl of the first strand cDNA product was used for amplification in triplicate in a 25 μl reaction solution containing 12.5 μl of SYBR Green PCR Master Mix (Stratagene™, La Jolla, Calif.) and 10 pM of each primer as per manufacturer's instructions. Primer sequences are identified in Table 1. The primer sequences are also listed in the sequence listing which is attached to the specification of the present application and made a part thereof.
# (§7) The PCR reaction was performed on a MX3000P (Stratagene, La Jolla, Calif.). The PCR program consisted of an initial denaturation where the reaction was incubated for 10 min at 95° C., the second step the DNA was amplified for 40 cycles of 30 sec at 95° C. annealing of primers for 1 min at 60° C. and an extension at 72° C. for 30 sec. Dissociation curve was performed to ensure no primer-dimers were present at the end of each PCR run.
# (§8) The relative expression software tool (REST©) was used for the calculation of relative expression levels in real-time PCR (Pfaffl et al, 2002). This mathematical model is based on the PCR efficiencies and the mean crossing point deviation between the treated and untreated cells. The target gene expression was normalized with two housekeeping genes: GAPDH and ACTB. Statistical analysis of group differences was performed by Pair Wise Fixed Reallocation Randomization Test©, implemented in the REST-XL software (Pfaffl et al, 2002) and the coefficient of variance was given. Sigma Plot was used to illustrate the logarithmic graphs.
# [4] = tested on: collagen type I, collagen type III, fibronectin, PAI-1, tPA gene transcription in sheath derived cells; assay: QRT-PCR gene transcription, sheath derived cells; settings: time course, pumactant 1 mg/ml or TGF-β1, n=3
# Description: as §5, §6, §7, §8
# [5] = tested on: collagen type I, collagen type III, fibronectin, PAI-1, tPA gene transcription in core derived cells; assay: QRT-PCR gene transcription, core derived cells; settings: 48-hour time course, pumactant 1 mg/ml or TGF-β1 2 ng/ml, n=3
# Description: as §5, with “Quiescent cells were treated with pumactant (1 mg/ml) for 0-24 hrs or TGF-β1 for 0-24 h ours (positive control).” left out
# as §6, §7, §8
# [6] = tested on: tendon core cells (endotenon); assay: WST-1 proliferation assay, tendon core cells
# Description: as §1, §2, §3, §4
# [7] = pumactant 1 mg/ml or TGF-β1, n=3
substance,measurement,setting,value
TGF-β1: growth factor used as positive control,cell number of sheath cells compared to control media,"[1]; 24 hours, the other / various concentrations",no statistical significance; also recorded: no statistical changes in cell number
same,proliferation of sheath cells,"[1]; 48 hours, any concentration",no statistical significance for any concentration
same,proliferation of sheath cells,"[1]; 72 hours, 0.5 ng/ml of TGF-β1",statistical significant increase
same,proliferation of surface cells,"[2]; 24 hours, over the tested concentrations",no statistical significant difference at any concentration
same,proliferation of surface cells,"[2]; 48 hours, various concentrations of TGF-β1",No concentrations of TGF-β1 showed any statistical increase; also recorded: no statistical significance
same,proliferation of surface cells compared to minimal media,"[2]; 72 hours, 2 ng/ml of TGF-β1, FIG. 24C",statistically significant increase in proliferation; also recorded: increase was identified at 2 ng/ml
same,PAI-1 gene transcription,[3]; [7],"up regulation in response to TGF-β1, which was statistically significant at 24 hours for fibronectin (p=0.03) and 4 hours for PAI-1"
same,collagen type III gene transcription,[3]; [7],"statistically significant down regulation at 1 hrs (*p=0.036), 2 hrs (*p=0.001), 6 hrs (*p=0.038), 16 hrs and 48 hrs"
same,fibronectin gene transcription,[3]; [7],"up regulation in response to TGF-β1, which was statistically significant at 24 hours for fibronectin"
same,collagen type I gene transcription,"[3]; pumactant 1 mg/ml or TGF-β1, vs untreated, normalized with GAPDH and ACTB, n=3",up regulation of Collagen type I gene transcription which was statistically significant at 24 and 48 hours; also recorded: statistically significant up regulation at 24 hours (*p=0.025) and 48 hours
same,PAI-1 gene transcription,[4],no statistical changes over the whole time course
same,collagen type I gene transcription,[4],up regulate of Collagen type I gene transcription over the time course though this did not reach statistical significance
same,collagen type III gene transcription,[4],"up regulation, which was statistically significant at 6 hours, 8 hours (p=0.03; FIG. 30), 16 and 24 hours; also recorded: statistically significant up regulation at 6 hrs (*p=0.03), 8 hrs (*p=0.037), 16 hrs (*p=0.012) and 24 hrs"
same,fibronectin gene transcription,[4],no statistical changes over the whole time course
same,tPA gene transcription,[4],"down regulation of gene transcription which was statistically significant at 2 hrs (p=0.013), 4 hours and 24 hours; also recorded: statistically significant down regulation at 2 hrs (*p=0.013), 4 hrs (*p=0.001) and 24 hrs"
same,PAI-1 gene transcription,[5],up regulation of gene transcription at 2 and 4 hours but this was only statistically significant at 2 hours; also recorded: statistically significant increase at 2 hrs
same,collagen type I gene transcription,[5],no statistical change
same,collagen type III gene transcription,[5],"statistically significant down regulation in the early stages of the time course 2, 6 and 8 hours; also recorded: statistically significant down regulation at 2, 6 and 8 hours"
same,fibronectin gene transcription,[5],"at 6 h a statistically significant down regulation (p=0.024), which was later, reversed with a statistically significant up regulation at 24 and 48 hours; also recorded: significant down regulation of fibronectin gene transcription at 6 hours (*p=0.024) and a statistically significant up-regulation at 24 hrs (*p=0.03) and 48 hrs"
same,tPA gene transcription,[5],"statistically significant down regulation in gene transcription at 1, 2, 6, 8 and 24 hrs 0.01) and 16 hours"
same,proliferation of core cells,"[6]; 24 hours, over the tested concentrations, FIG. 25",no statistical increase in proliferation
same,proliferation of core cells,"[6]; 48 hours, various concentrations",no statistical significance
same,proliferation of core cells,"[6]; 72 hours, any concentration, FIG. 27",no statistical significance

# Reference: patent publication US20110152218A1, “CRYSTALLINE PHOSPHOLIPID, METHOD FOR ITS PRODUCTION AND USE IN TREATING DAMAGED TISSUE” (priority 2008, published 2011)
